Laboratory results: patent US20250228958A1, “TSP1 INHIBITOR” (Daiichi Sankyo Company, Limited, priority 2022, published 2025)
“Also recorded” adds a separate entry of the source. Positions of bridges follow the written chain, without caps; N, C: chain ends. Non-standard residues stand in square brackets, D forms with d. Residues, ends and D or L forms follow the SMILES beside them. Chains are numbered I, II in the order given. No end group written: not given here. maleimide = maleimide-group-derived moiety in the linking group, forming a thioether bond with the thiol of a cysteine residue of the carrier molecule; KPEG = (2S)-6-amino-2-[[2-(methoxy-oligo(ethoxy))acetyl]amino]hexanoic acid (Lys with N-alpha methoxy-PEG acetyl); 2Nal = N[C@@H](Cc1ccc2ccccc2c1)C(=O)O; Gly(cPent) = N[C@H](C(=O)O)C1CCCC1; Agb = N=C(N)NCC[C@H](N)C(=O)O; Tle = CC(C)(C)[C@H](N)C(=O)O; hCys = N[C@@H](CCS)C(=O)O; P12P = not defined here

Legend:
[1] = test system: C57BL/6 mice, ischemic limb blood flow; assay: Blood flow improvement measurement tests (femoral artery/vein ligation and excision, laser Doppler); assay type: in vivo, mouse; settings: for blood flow AUC, % of vehicle group mean: blood flow AUC from beginning to end of measurement, ratio to vehicle-treated group mean; for %, ischemia/nonischemia (blood flow on the last day of measurement): mean ± standard error, ratio of ischemic limb flow to non-ischemic limb flow
Excerpt: Six to seven-week-old C57BL/6 mice were purchased from Charles River Laboratories Japan Inc., and acclimated over six days by feeding with a FR-2 solid diet (produced by Funabashi Farm Co., Ltd.). The rearing facility switched between light and dark modes in a 12-hour cycle with light turning on at 7 a.m. and turning off at 7 p.m. Under isoflurane inhalation anaesthesia, the left thighs of the mice were dissected, and the superficial femoral arteries and veins (from just below the deep femoral arteries to the popliteal artery and vein) were ligated and excised. […] Five mice were used for each treatment group.
Blood flows were measured in ischemic (left) and non-ischemic (right) limbs using a laser Doppler perfusion imager (PeriScan PIM III, Moor LD12-HR). The improvement of blood flow was evaluated by the ratio of ischemic limb flow to non-ischemic limb flow. […] In addition, blood flow AUC was calculated to determine the ratio (%) of the mean value of the test substance-treated group to the mean value of the vehicle-treated group.

human TSP1 = biological target: T1, human TSP1 (Homo sapiens, UniProt P07996); assay: Cell adhesion inhibition assay (HUVEC adhesion to TSP1-coated plate); assay type: cell-based; settings: inhibition of HUVEC adhesion to human TSP1-coated plate
T1 construct: Thrombospondin human platelet (Calbiochem, 605225); purchased Calbiochem 605225; host or cells: human platelets (natural source, not recombinant)
T1 sequence (P07996 19-1170): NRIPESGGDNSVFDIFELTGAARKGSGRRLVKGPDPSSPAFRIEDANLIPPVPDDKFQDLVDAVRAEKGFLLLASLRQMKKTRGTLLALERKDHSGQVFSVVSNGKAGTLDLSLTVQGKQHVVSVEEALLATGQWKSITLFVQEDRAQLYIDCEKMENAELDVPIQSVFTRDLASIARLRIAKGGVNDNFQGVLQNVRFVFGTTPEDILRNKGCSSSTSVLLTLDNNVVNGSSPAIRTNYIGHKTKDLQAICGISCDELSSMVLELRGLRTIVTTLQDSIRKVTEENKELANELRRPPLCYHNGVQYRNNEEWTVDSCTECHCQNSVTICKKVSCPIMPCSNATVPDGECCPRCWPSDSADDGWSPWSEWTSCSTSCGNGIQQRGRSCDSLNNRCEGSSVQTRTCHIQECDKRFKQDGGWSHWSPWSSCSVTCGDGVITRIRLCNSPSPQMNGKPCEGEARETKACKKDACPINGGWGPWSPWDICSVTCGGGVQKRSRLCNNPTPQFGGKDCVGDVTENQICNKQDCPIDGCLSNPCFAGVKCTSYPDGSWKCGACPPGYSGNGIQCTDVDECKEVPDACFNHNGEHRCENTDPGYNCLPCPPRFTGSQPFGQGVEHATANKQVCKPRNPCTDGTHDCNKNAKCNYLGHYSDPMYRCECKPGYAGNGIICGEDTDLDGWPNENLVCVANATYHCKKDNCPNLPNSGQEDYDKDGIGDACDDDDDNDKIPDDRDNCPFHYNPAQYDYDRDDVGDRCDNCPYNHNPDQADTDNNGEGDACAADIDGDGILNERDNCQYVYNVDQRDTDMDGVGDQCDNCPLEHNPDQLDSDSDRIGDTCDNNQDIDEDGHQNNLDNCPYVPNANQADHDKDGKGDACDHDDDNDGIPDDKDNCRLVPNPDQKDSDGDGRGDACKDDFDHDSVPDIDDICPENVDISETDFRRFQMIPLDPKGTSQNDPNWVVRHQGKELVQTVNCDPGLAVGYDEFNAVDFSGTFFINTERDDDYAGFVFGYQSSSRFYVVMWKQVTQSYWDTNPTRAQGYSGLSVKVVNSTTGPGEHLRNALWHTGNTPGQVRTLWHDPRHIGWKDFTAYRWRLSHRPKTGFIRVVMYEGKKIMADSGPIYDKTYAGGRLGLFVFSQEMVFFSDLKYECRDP
Experimental: • 384-well Low Flange Black Flat Bottom Polystyrene Not Treated Microplate (Corning, 3573) • Proteosave(registered trademark) SS 15 mL (Sumitomo Bakelite, MS-52150) • Thrombospondin human platelet (Calbiochem, 605225) • HUVEC (KURABO, KE-4109P10) • EGM-2 MV (Lonza, CC-3202): for HUVEC passaging • Collagen coated dish (IWAKI, 4020-010): for HUVEC passaging • Lipidure(registered trademark)-BL802 (NOF Corporation), 5% solution • DMEM low glucose (GIBCO, 11054-020) • Bovine serum albumin (BSA) solution 30% (Sigma A9205) • CellTiter-Glo 2.0 (Promega G9242) […]
To maintain human umbilical vein endothelial cells, HUVECs, EGM2-MV and a collagen coated dish were used (the cells were ceased to be used after 10th or 11th passage since the cell proliferation rate declined at this stage). […] After removal of supernatant, the cells were resuspended in a DMEM buffer, counted for cell number, and diluted to 6000 cells/10 μL. […]
The culture medium was removed, and the plate was washed twice with 30 L/well of HBSS/Hepes 0.5% BSA. […] Fluorescence emission was detected using EnVision Xcite Multilabel Reader (produced by Perkin Elmer).
On the basis of the measured fluorescence values, the IC50 values (nM) of the different cyclic peptides and conjugates for inhibition of cell adhesion were calculated. […]

[2] = Serum stability test, mouse serum; assay type: in vitro ADME
Excerpt: (§1) • Mouse serum (BALB/c CrSlc, male, Japan SLC, Inc.) • Monkey serum (cynomolgus monkey, male, Japan SLC, Inc.) • Human serum (Caucasian, pool of 5 males and 5 females, KAC Co., Ltd.) • Phenacetin (Nacalai Tesque, Inc.) • Niflumic acid (Nacalai Tesque, Inc.) • Furosemide (Nacalai Tesque, Inc.) • Acetonitrile (FUJIFILM Wako Pure Chemical Corporation) • Methanol (FUJIFILM Wako Pure Chemical Corporation) • Formic acid (FUJIFILM Wako Pure Chemical Corporation) • Dimethyl sulfoxide (DMSO) (FUJIFILM Wako Pure Chemical Corporation)
(§2) Solutions of Phenacetin, niflumic acid, and furosemide were prepared in DMSO at 10 μg/ml, 150 μg/ml, and 200 μg/ml, respectively. 10 μg/ml of phenacetin in DMSO, 150 μg/ml of niflumic acid in DMSO, and 200 μg/ml of furosemide in DMSO were dissolved in a mixture of […]/methanol (75/25, v/v) (final concentrations: phenacetin; 1 ng/mL, niflumic acid: 15 ng/mL, and furosemide 20 ng/mL), and formic acid was added to the prepared test solution (final concentration: 1% (v/v)) to prepare a formic acid-containing IS solution.
(§3) The test substances were prepared in DMSO to a concentration of 10 mM each. Further, the solution was diluted with DMSO to a concentration of 2 mM to make a test substance solution.
(§4) Each serum was preincubated at 37° C. for 5 minutes, and then the test substance solution was added to a final concentration of 20 μM to initiate the reaction. The test substance-added serum was incubated at 37° C. At 0 and 4 hours after the start of the reaction, a portion of the serum was taken out and added to the formic acid-containing IS solution to stop the reaction, which was used as a measurement sample.
(§5) The test substance and IS (phenacetin, niflumic acid, and furosemide) in the measurement sample were measured by LC-MS/MS, and the peak area ratio (IS ratio) of the test substance to IS (any of phenacetin, niflumic acid, and furosemide) was calculated.
(§6) The percentage of the IS ratio at 4 hours after the start of the reaction relative to that at 0 hours after the start of the reaction was used as a residual ratio to evaluate serum stability.

[3] = Serum stability test, monkey serum; assay type: in vitro ADME, cynomolgus monkey; settings: male, residual ratio: IS ratio at 4 hours relative to 0 hours, 37° C.
Excerpt: as §1, §2, §3, §4, §5, §6

[4] = Serum stability test, human serum; assay type: in vitro ADME; settings: both sexes, residual ratio: IS ratio at 4 hours relative to 0 hours, 37° C.
Excerpt: as §1, §2, §3, §4, §5, §6

[5] = biological target: Thrombospondin human platelet (Calbiochem, 605225) (human, UniProt P07996 19-1170); assay: cell-based or functional assay
Chain of Thrombospondin human platelet (Calbiochem, 605225) (P07996 19-1170 limits assumed): as the sequence (P07996 19-1170) above

CC(=O)N[C@H]1[C@H]([C@H](O)[C@H](O)CO)O[C@](CO)(OC[C@H]2O[C@@H](OC3[C@@H](CO)C[C@H](O[C@@H]4[C@@H](OC[C@H]5OC(O[C@H]6[C@H](O)[C@@H](NC(C)=O)C(O[C@H]7[C@H](O)[C@@H](NC(C)=O)C(OCC(=O)NCCCC[C@H](NC(=O)CNC(=O)CNC(=O)CNC(=O)CNC(=O)[C@@H]8CSCC(=O)N[C@@H](Cc9ccc%10ccccc%10c9)C(=O)N[C@H](CCCNC(=N)N)C(=O)N[C@@H](CO)C(=O)NCC(=O)N[C@@H](CCNC(=N)N)C(=O)N[C@H](CC(N)=O)C(=O)N[C@@H](Cc9c[nH]c%10ccccc9%10)C(=O)N[C@@H](C(C)N)C(=O)N[C@H](CCCNC(=N)N)C(=O)N[C@@H](Cc9c[nH]c%10ccccc9%10)C(=O)N[C@@H](C9CCCC9)C(=O)N8)C(=O)NCCOCCOCCOCCOCCOCCOCCOCCOCCOCCOCCOCCOCCC(=O)NCCOCCOCCOCCOCCOCCOCCOCCOCCOCCOCCOCCOCCC(=O)N[C@H](CCCCNC(=O)CCN8C(=O)CC(C)C8=O)C(N)=O)O[C@@H]7CO)O[C@@H]6CO)[C@@H](O)[C@@H](O[C@H]6O[C@H](CO)[C@@H](O)[C@H](O)[C@@H]6O[C@@H]6O[C@H](CO)C(O[C@@H]7O[C@H](CO[C@]8(C(=O)O)C[C@H](O)[C@@H](NC(C)=O)[C@H]([C@H](O)[C@H](O)CO)O8)[C@H](O)[C@H](O)[C@H]7O)[C@H](O)[C@H]6NC(C)=O)[C@@H]5O)O[C@H](CO)[C@@H](O)[C@@H]4O)[C@H](NC(C)=O)[C@H]3O)[C@H](O)[C@@H](O)[C@H]2O)C[C@@H]1O (some centres unmarked) [Conjugate-56]
blood flow AUC, % of vehicle group mean ([1]; 0.3 mg/kg): 187.6%
%, ischemia/nonischemia (blood flow on the last day of measurement) ([1]; 0.3 mg/kg): 40.2 ± 5.6%
blood flow AUC, % of vehicle group mean ([1]; 1 mg/kg): 318.4%
%, ischemia/nonischemia (blood flow on the last day of measurement) ([1]; 1 mg/kg): 74.8 ± 11.0%

N=C(N)NCCC[C@@H]1NC(=O)[C@H](Cc2ccc3ccccc3c2)NC(=O)CSC[C@@H](C(N)=O)NC(=O)[C@H](C2CCCC2)NC(=O)[C@H](Cc2c[nH]c3ccccc23)NC(=O)[C@H](CCCNC(=N)N)NC(=O)[C@@H]2CCSSCC[C@H](NC1=O)C(=O)NCC(=O)N[C@@H](CCNC(=N)N)C(=O)N[C@@H](CC(N)=O)C(=O)N[C@@H](Cc1c[nH]c3ccccc13)C(=O)N2 [Peptide-1] ({CH2CO}-[2Nal]R[hCys]G[Agb]NW[hCys]RW[Gly(cPent)]C-NH2; disulfide 3-8; thioether N-12)
IC50 (human TSP1): 12.6 nM
remaining at 4 h, 20 μM ([2]; male, BALB/c CrSlc, mouse, mouse serum, residual ratio: IS ratio at 4 hours relative to 0 hours, 20 μM, 37° C.): 101%
serum stability (in words) ([2]; statement covers mouse, monkey and human serum, 4 hours): high serum stability; also recorded: higher serum stability
remaining at 4 h, 20 μM [3]: 90.6%
remaining at 4 h, 20 μM [4]: 93.9%

CC(C)(C)[C@@H]1NC(=O)[C@H](Cc2ccc3ccccc3c2)NC(=O)CSC[C@@H](C(N)=O)NC(=O)[C@H](C2CCCC2)NC(=O)[C@H](Cc2c[nH]c3ccccc23)NC(=O)[C@H](CCCNC(=N)N)NC(=O)[C@@H]2CCSSCC[C@H](NC1=O)C(=O)NCC(=O)N[C@@H](CCCNC(=N)N)C(=O)N[C@@H](CC(N)=O)C(=O)N[C@@H](Cc1c[nH]c3ccccc13)C(=O)N2 [Peptide-8] ({CH2CO}-[2Nal][Tle][hCys]GRNW[hCys]RW[Gly(cPent)]C-NH2; disulfide 3-8; thioether N-12)
IC50 (human TSP1): 12.6 nM

B1: Conjugate-10 (other)
peptide: [2Nal]R[hCys]GRDW[hCys]RW[Gly(cPent)]CGSGSDD[KPEG][P12P][P12P]K(maleimide)-NH2
chain: DKTHTCPPCPAPEAAGGPSVFLFPPKPKDTLMISRTPEVTCVVVDVSHEDPEVKFNWYVDGVEVHNAKTKPREEQYNSTYRVVSVLTVLHQDWLNGKEYKCKVSNKALAAPIEKTISKAKGQPREPQVYTLPPSREEMTKNQVSLTCLVKGFYPSDIAVEWESNGQPENNYKTTPPVLDSDGSFFLYSKLTVDKSRWQQGNVFSCSVMHEALHNHYTQKSLSLSPGK
modifications: disulfide I:3-I:8; not fully specified; reading uncertain; also: Lys22 maleimide side chain thioether-linked to Fc hinge Cys6 and Cys9 (Eu 226, 229), thioether at chain A 1 at chain A 12 to a chain's N-terminus
IC50 for inhibition of cell adhesion (HUVEC to coated human TSP1) [5]: 12.8 nM
